Experiments:
[1] = test system: TNFα-FL/Gaussia Luciferase; assay: Dox Induced TNFα-FL-Gluc Assay; format: cell-based; details: for IC50: 24 hr Dox induction, 293FRT/TO cells, mean, read-out: 24 hr Dox Inducible TNFaFLGluc 293FRT/TO: Mean IC50; for 24 hr Dox Inducible TNFaFLGluc 293FRT/TO: TNF/PD1: ratio of TNFaFLGluc IC50 to PD1ssGluc IC50, '<=>' given where both are I.A.
How it was run: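 Stereoisomer mixtures were tested where stereochemistry is not drawn. Induction used doxycycline added together with compound dilutions in DMSO/media to Flp-In 293 T-REx cells carrying a T-REx-regulated TNFα (aa 1-233)-Gaussia luciferase construct, then incubated at 37 °C, 5% CO2.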

[2] = test system: HER3-ss+4aa/Gaussia Luciferase; assay: Dox-Induced Her3-ss-Gluc Assay; format: cell-based; details: 24 hr Dox induction; 293FRT/TO cells; mean; read-out: 24 hr Dox Inducible Her3(ss + 4)Gluc 293FRT/TO: Mean IC50
How it was run: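 Cells were seeded a day ahead, then given compound diluted in DMSO/media with doxycycline to induce expression of the HER3 signal sequence (+4 aa)–Gaussia luciferase fusion. Incubation was at 37° C., 5% CO2, in a stable Flp-In 293 T-REx line.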

[3] = Liver Microsome Stability Assay (rat); details: rat liver microsomes, with NADPH, 1.0 uM compound
Procedure: (§1) Stability of a compound was assessed in the presence of liver microsomes from various sources—mouse, rat, monkey and human liver microsomes. 1.0 uM compound, 0.4% DMSO in 0.1 M Potassium Phosphate with 1.0 mg/mL liver microsomes, were incubated at 37° C. with or without 1 mM NADPH. The samples were quenched at 0, and 30 minutes.

[4] = Liver Microsome Stability Assay (mouse); details: mouse liver microsomes, with NADPH, 1.0 uM compound
Procedure: as §1

[5] = Liver Microsome Stability Assay (human); details: human liver microsomes, with NADPH, 1.0 uM compound
Procedure: as §1

[6] = test system: multiple myeloma cell line U266B1; assay: U266 Cell Viability Assay; format: cell-based, human; details: Homo sapiens, U-266, 48 h, U266B1 cells, Celltiter-Glo
How it was run: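 Steps: culture in RPMI 1640 plus 10% FBS and 2 mM glutamine; plate and add compound dilutions; incubate 48 hours at 37° C., 5% CO2; add CellTiter-Glo and quantify luciferase signal.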

[7] = test system: multiple myeloma cell line NCI-H929; assay: H929 Cell Viability Assay; format: cell-based, human; details: Homo sapiens, NCI-H929, 48 h, NCI-H929 cells, Celltiter-Glo
How it was run: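 Luminescent ATP detection (CellTiter-Glo) after 48 hours of compound exposure measures viability. Cells were plated in RPMI 1640 containing 10% fetal bovine serum and kept at 37° C under 5% CO2.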

[8] = test system: PD1-ss+10aa/Gaussia Luciferase; assay: Dox-Induced PD1-ss-Gluc Assay; format: cell-based; details: 24 hr Dox induction; 293FRT/TO cells; mean; read-out: 24 hr Dox Inducible PD1ssGluc 293FRT/TO: Mean IC50
How it was run: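 Gaussia luciferase fused downstream of the PD1 signal peptide plus 10 residues was expressed on doxycycline induction in stably transfected Flp-In 293 T-REx cells. Compounds were added with doxycycline and incubated at 37 °C, 5% CO2.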

[9] = test system: IL-2-FL/Gaussia Luciferase; assay: Dox Induced IL2-FL-Gluc Assay; format: cell-based; details: for IC50: 24 hr Dox induction, 293FRT/TO cells, mean, read-out: 24 hr Dox Inducible IL2FLGluc 293FRT/TO: Mean IC50; for 24 hr Dox Inducible IL2FLGluc 293FRT/TO: IL2/PD1: ratio of IL2FLGluc IC50 to PD1ssGluc IC50, '<=>' given where both are I.A.
How it was run: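 Cells are plated one day ahead, then receive compound dilutions in DMSO/media with doxycycline and incubate at 37° C, 5% CO2. They are Flp-In 293 T-REx cells expressing a full-length IL-2 (amino acids 1-153)–Gaussia luciferase fusion under T-REx control.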

[10] = Liver Microsome Stability Assay (monkey); details: monkey liver microsomes, with NADPH, 1.0 uM compound
Procedure: as §1

| IC50 [1] [µM] | IC50 [2] [µM] | Liver Microsome Stability (Multiple Species): Rat - % Remaining after 30 min w/NADPH [3] [%] | Liver Microsome Stability (Multiple Species): Mouse - % Remaining after 30 min w/NADPH [4] [%] | Liver Microsome Stability (Multiple Species): Human - % Remaining after 30 min w/NADPH [5] [%] | EC50 [6] [µM] | EC50 [7] [µM] | IC50 [8] [µM] | IC50 [9] [µM] | Liver Microsome Stability (Multiple Species): Monkey - % Remaining after 30 min w/NADPH [10] [%] | Compound | 24 hr Dox Inducible TNFaFLGluc 293FRT/TO: TNF/PD1 [1] | 24 hr Dox Inducible IL2FLGluc 293FRT/TO: IL2/PD1 [9] |
| --- | --- | --- | --- | --- | --- | --- | --- | --- | --- | --- | --- | --- |
| > 25 | 20.4 | 3.4 | 0.16 | 0.27 | > 25 | > 25 | 8.96 | 16.7 | 0.03 | CN(C)C(=O)CCCn1cccc1C(=O)Nc1nc([C@H]2CCCN2c2ccccc2)cs1 [Compound C61, (R)-1-(4-(dimethylamino)-4-oxobutyl)-N-(4-(1-phenylpyrrolidin-2-yl)thiazol-2-yl)-1H-pyrrole-2-carboxamide] | >2.79 | 1.9 |
| > 25 | 6.59 | 4.2 | 22.3 | 31.5 | > 25 | > 25 | 4.25 | > 25 | 0.28 | O=C(Nc1nc([C@H]2CCCN2c2ccccc2)cs1)c1cccn1CC1COC1 [Compound C84, (R)-1-(oxetan-3-ylmethyl)-N-(4-(1-phenylpyrrolidin-2-yl)thiazol-2-yl)-1H-pyrrole-2-carboxamide] | >5.88 | >5.9 |
| 1.2 | 0.257 | 11.2 | 21.3 | 1.61 | > 25 | 6.12 | 0.126 | 0.279 | 0.21 | CCc1ccc(N2CCC[C@@H]2c2csc(NC(=O)c3cccn3CC3CCOCC3)n2)nc1 [Compound C85, (R)-N-(4-(1-(5-ethylpyridin-2-yl)pyrrolidin-2-yl)thiazol-2-yl)-1-((tetrahydro-2H-pyran-4-yl)methyl)-1H-pyrrole-2-carboxamide] | 9.53 | 2.2 |
| > 25 | 1.11 | 20.2 | 43.5 | 27.3 | > 25 | > 25 | 2.98 | 2.38 | 15 | N#Cc1ccccc1Cn1cccc1C(=O)Nc1nc([C@H]2CCCN2c2ccccc2)cs1 [Compound C86, (R)-1-(2-cyanobenzyl)-N-(4-(1-phenylpyrrolidin-2-yl)thiazol-2-yl)-1H-pyrrole-2-carboxamide] | >8.38 | 0.8 |
| 0.731 | 0.129 | 6.85 | 14.2 | 12.8 | > 25 | 4.05 | 0.0784 | 0.238 | 0.21 | C[C@@H](CC#N)Cn1cccc1C(=O)Nc1nc([C@H]2CCCN2c2ccccc2)cs1 [Compound C87, 1-((S)-3-cyano-2-methylpropyl)-N-(4-((R)-1-phenylpyrrolidin-2-yl)thiazol-2-yl)-1H-pyrrole-2-carboxamide] | 9.32 | 3 |

The next lines start with the compound.

| Compound | IC50 [1] [µM] | IC50 [2] [µM] | Liver Microsome Stability (Multiple Species): Rat - % Remaining after 30 min w/NADPH [3] [%] | Liver Microsome Stability (Multiple Species): Mouse - % Remaining after 30 min w/NADPH [4] [%] | Liver Microsome Stability (Multiple Species): Human - % Remaining after 30 min w/NADPH [5] [%] | EC50 [6] [µM] | EC50 [7] [µM] | IC50 [8] [µM] | IC50 [9] [µM] | Liver Microsome Stability (Multiple Species): Monkey - % Remaining after 30 min w/NADPH [10] [%] | 24 hr Dox Inducible TNFaFLGluc 293FRT/TO: TNF/PD1 [1] | 24 hr Dox Inducible IL2FLGluc 293FRT/TO: IL2/PD1 [9] |
| --- | --- | --- | --- | --- | --- | --- | --- | --- | --- | --- | --- | --- |
| O=C(Nc1nc([C@H]2CCCN2c2ccccc2)cs1)c1cccn1CC1CCOCC1 [Compound C55, (R)-N-(4-(1-phenylpyrrolidin-2-yl)thiazol-2-yl)-1-((tetrahydro-2H-pyran-4-yl)methyl)-1H-pyrrole-2-carboxamide] | 2.56 | 0.374 | 22.5 | 22.7 | 26.7 | > 25 | 20.1 | 0.168 | 0.74 | 6.6 | 15.3 | 4.4 |
| O=C(Nc1nc([C@H]2CCCN2c2ccccc2)cs1)c1cccn1CC1CCOC1 (stereo partly drawn) [Compound C56, N-(4-((R)-1-phenylpyrrolidin-2-yl)thiazol-2-yl)-1-((tetrahydrofuran-3-yl)methyl)-1H-pyrrole-2-carboxamide] | 19.2 | 3.27 | 10.9 | 21 | 24.4 | > 25 | > 25 | 1.75 | 4.67 | 2.02 | 11 | 2.7 |
| NC(=O)CCCCn1cccc1C(=O)Nc1nc([C@H]2CCCN2c2ccccc2)cs1 [Compound C58] | > 25 | 9.1 | 34.7 | 17 | 35.7 | > 25 | > 25 | 7.88 | > 25 | 27.4 | >3.17 | 3.2 |
| CN(C)C(=O)CCn1cccc1C(=O)Nc1nc([C@H]2CCCN2c2ccccc2)cs1 [Compound C59, (R)-1-(3-(dimethylamino)-3-oxopropyl)-N-(4-(1-phenylpyrrolidin-2-yl)thiazol-2-yl)-1H-pyrrole-2-carboxamide] | > 25 | 12.2 | 11.5 | 3.23 | 0.87 | > 25 | > 25 | 7.98 | > 25 | 2.48 | >3.13 | 3.1 |
| CN(C)C(=O)CCCCn1cccc1C(=O)Nc1nc([C@H]2CCCN2c2ccccc2)cs1 [Compound C60, (R)-1-(5-(dimethylamino)-5-oxopentyl)-N-(4-(1-phenylpyrrolidin-2-yl)thiazol-2-yl)-1H-pyrrole-2-carboxamide] | > 25 | > 25 | 6.4 | 0.25 | 0.05 | > 25 | > 25 | 8.59 | > 25 | 0.09 | >2.91 | 2.9 |

Reference: US20230286973A1, “PROTEIN SECRETION INHIBITORS” (KEZAR LIFE SCIENCES, priority 2020, published 2023)
